Laboratory results taken from PMC7917437 (Journal of Medicinal Chemistry, 2021).

Legend:
[1] = test system: CYP2B6; experiment: CYP induction, mRNA by qRT-PCR in cultured human hepatocytes; assay type: in vitro ADME; details: up to 30 μM, i.e., < 2-fold change and/or <20% of the positive control
[2] = test system: mouse, rat, monkey, and human hepatocyte incubations; experiment: In vitro metabolism in hepatocyte incubations; assay type: in vitro ADME; details: HPLC and mass spectrometry
[3] = test system: chronic constriction injury model of neuropathy; experiment: Chronic constriction injury model of neuropathy, von Frey assay; assay type: in vivo, male SD rats; details: AUC over 6 h post dose
[4] = test system: LPS-induced mouse model; details: LPS-induced mouse model ref 38; cited from earlier work
[5] = clinical; details: both, human, plasma, oral
[6] = Phase 1a single ascending dose study in healthy volunteers
[7] = test system: laminitis; details: cited from earlier work

Row | effect on CYP2B6 mRNA levels [1] | putative metabolites detected [2] | half-life [5] | effective total AUC for a daily dosing regimen ([6]; calculated) | Compound | efficacy compared with pregabalin ([3]; at 10–20 fold lower doses, vs pregabalin (30 mg/kg) p = 0.039) | pain measured with a von Frey assay (mechanical withdrawal thresholds) ([3]; male SD rats, oral gavage, 3 mg/kg, vs PEG 300 p ≤ 0.001) | neuroinflammation in the CNS [4] | absorption ([6]; human, single oral doses) | outcome in a laminitic horse scheduled for euthanasia ([7]; after 5 days of treatment ref 49) | adverse effects from clinical exams and blood work ([7]; horse, five-day treatment, once daily 0.1 mg/kg ref 49) | outcome in seven other laminitic horses ([7]; when all other treatments failed ref 50)
1 | little or no effect | seven | 1.75 to 2.46 days | 6 ng·h/mL | CC[C@H](C)C(=O)N1CCC(NC(=O)Nc2ccc(OC(F)(F)F)c(F)c2)CC1 [EC5026, (S)-1-(3-Fluoro-4-(trifluoromethoxy)phenyl)-3-(1-(2-methylbutanoyl)piperidin-4-yl)urea] | superior to pregabalin | blocked pain | prevent neuroinflammation | well absorbed with linear dose-proportionality |  |  | 
2 |  |  |  |  | O=C(Nc1ccc(OC(F)(F)F)cc1)N[C@H]1CC[C@H](Oc2ccc(C(=O)O)cc2)CC1 [t-TUCB, trans-4-{4-[3-(4-trifluoromethoxy-phenyl)-ureido]-cyclohexyloxy}-benzoic acid] |  |  |  |  | complete recovery with no recurrent laminitis | no signs of adverse effects | showed improvement in disease
